System: MV-4-11 cells
Test: Gene expression microarray analysis (Affymetrix PrimeView) and GSEA
Format: cell-based, human
Design: RFU PODN (11730768_x_at) / Fold change /veh PODN (11730768_x_at) / RFU LINC00158 (11744669_a_at) / Fold change /veh LINC00158 (11744669_a_at) / RFU DUSP10 (11751237_a_at) / Fold change /veh DUSP10 (11751237_a_at) / RFU ID3 (11757404_x_at) / Fold change /veh ID3 (11757404_x_at) / RFU PLEKHG5 (11737974_s_at) / Fold change /veh PLEKHG5 (11737974_s_at) / RFU LRRC4B (11730491_at) / Fold change /veh LRRC4B (11730491_at) / RFU GIMAP4 (11747438_a_at) / Fold change /veh GIMAP4 (11747438_a_at) / RFU KRT8 (11758183_x_at) / Fold change /veh KRT8 (11758183_x_at) / RFU CNN1 (11734310_a_at) / Fold change /veh CNN1 (11734310_a_at) / RFU VPS37D (11726825_at) / Fold change /veh VPS37D (11726825_at) / RFU C10orf10 (11716522_x_at) / Fold change /veh C10orf10 (11716522_x_at) / RFU KIR2DL2 /// KIR2DL4 /// KIR2DL5A /// KIR2DL5B /// KIR2DS1 /// KIR2DS2 /// KIR2DS3 /// KIR2DS4 /// KIR3DL3 /// KIR3DL3 /// KIR3DS1 (11738374_at) / Fold change /veh KIR2DL2 /// KIR2DL4 /// KIR2DL5A /// KIR2DL5B /// KIR2DS1 /// KIR2DS2 /// KIR2DS3 /// KIR2DS4 /// KIR3DL3 /// KIR3DL3 /// KIR3DS1 (11738374_at) / RFU C1QL1 (11718748_at) / Fold change /veh C1QL1 (11718748_at) / RFU TMPRSS4 (11747572_a_at) / Fold change /veh TMPRSS4 (11747572_a_at) / RFU HAMP (11756126_x_at) / Fold change /veh HAMP (11756126_x_at) / RFU RNFT2 (11725882_a_at) / Fold change /veh RNFT2 (11725882_a_at) / RFU NR4A2 (11747474_a_at) / Fold change /veh NR4A2 (11747474_a_at) / RFU ABCC12 (11746883_a_at) / Fold change /veh ABCC12 (11746883_a_at) / RFU TMEM136 (11760407_x_at) / Fold change /veh TMEM136 (11760407_x_at) / RFU CLDN22 /// WWC2 (11732394_at) / Fold change /veh CLDN22 /// WWC2 (11732394_at) / RFU HLA-DPB1 (11760878_x_at) / Fold change /veh HLA-DPB1 (11760878_x_at) / RFU SPINT1 (11716480_a_at) / Fold change /veh SPINT1 (11716480_a_at) / RFU GAP43 (11754022_s_at) / Fold change /veh GAP43 (11754022_s_at) / RFU A4GNT (11735810_at) / Fold change /veh A4GNT (11735810_at) / RFU PRB3 (11715151_x_at) / Fold change /veh PRB3 (11715151_x_at) / RFU TUBB4B (11761932_at) / Fold change /veh TUBB4B (11761932_at) / RFU CAPN14 (11732068_a_at) / Fold change /veh CAPN14 (11732068_a_at) / RFU TMCC2 (11721928_a_at) / Fold change /veh TMCC2 (11721928_a_at) / RFU IRGQ (11745062_a_at) / Fold change /veh IRGQ (11745062_a_at) / RFU FAM174B (11720279_a_at) / Fold change /veh FAM174B (11720279_a_at) / RFU TMPRSS4 (11748680_a_at) / Fold change /veh TMPRSS4 (11748680_a_at) / RFU FAM212B (11763350_a_at) / Fold change /veh FAM212B (11763350_a_at) / RFU PLEKHG5 (11743358_a_at) / Fold change /veh PLEKHG5 (11743358_a_at) / RFU ZSCAN30 (11745921_a_at) / Fold change /veh ZSCAN30 (11745921_a_at) / RFU CMKLR1 (11741424_a_at) / Fold change /veh CMKLR1 (11741424_a_at) / RFU LOC101060620 /// MAPK8IP1 (11723275_at) / Fold change /veh LOC101060620 /// MAPK8IP1 (11723275_at) / RFU SPTSSB (11747773_x_at) / Fold change /veh SPTSSB (11747773_x_at) / RFU PRSS12 (11739890_at) / Fold change /veh PRSS12 (11739890_at) / RFU BIN1 (11741810_x_at) / Fold change /veh BIN1 (11741810_x_at) / RFU WNT11 (11732464_a_at) / Fold change /veh WNT11 (11732464_a_at) / RFU C10orf10 (11716521_a_at) / Fold change /veh C10orf10 (11716521_a_at) / RFU C5orf56 (11738089_at) / Fold change /veh C5orf56 (11738089_at) / RFU CYB561 (11721691_x_at) / Fold change /veh CYB561 (11721691_x_at) / RFU ANKRD19P (11752326_a_at) / Fold change /veh ANKRD19P (11752326_a_at) / RFU OR2T12 /// OR2T33 /// OR2T8 (11738714_s_at) / Fold change /veh OR2T12 /// OR2T33 /// OR2T8 (11738714_s_at) / RFU VCAN (11748164_a_at) / Fold change /veh VCAN (11748164_a_at) / RFU JSRP1 (11732532_at) / Fold change /veh JSRP1 (11732532_at) / RFU KRTAP10-11 (11738290_x_at) / Fold change /veh KRTAP10-11 (11738290_x_at) / RFU MYO3A (11730013_a_at) / Fold change /veh MYO3A (11730013_a_at) / RFU EBF3 (11725865_a_at) / Fold change /veh EBF3 (11725865_a_at) / RFU CAMK2N1 (11719241_x_at) / Fold change /veh CAMK2N1 (11719241_x_at) / RFU C5orf56 (11738088_a_at) / Fold change /veh C5orf56 (11738088_a_at) / RFU OLFML3 (11715873_a_at) / Fold change /veh OLFML3 (11715873_a_at) / RFU LOC100653217 /// NTM (11731650_a_at) / Fold change /veh LOC100653217 /// NTM (11731650_a_at) / RFU MAPK11 (11762145_a_at) / Fold change /veh MAPK11 (11762145_a_at) / RFU FIZ1 (11724087_x_at) / Fold change /veh FIZ1 (11724087_x_at) / RFU OASL (11726364_x_at) / Fold change /veh OASL (11726364_x_at) / RFU SOX15 (11748057_x_at) / Fold change /veh SOX15 (11748057_x_at) / RFU CD79A (11719716_a_at) / Fold change /veh CD79A (11719716_a_at) / RFU HIST1H1D (11736915_at) / Fold change /veh HIST1H1D (11736915_at) / RFU CASKIN2 (11723855_a_at) / Fold change /veh CASKIN2 (11723855_a_at) / RFU LOC730098 (11760151_x_at) / Fold change /veh LOC730098 (11760151_x_at) / RFU OR4N2 (11742367_at) / Fold change /veh OR4N2 (11742367_at) / RFU PRRT2 (11749266_a_at) / Fold change /veh PRRT2 (11749266_a_at) / RFU SNX32 (11753110_a_at) / Fold change /veh SNX32 (11753110_a_at) / RFU CDHR5 (11726645_a_at) / Fold change /veh CDHR5 (11726645_a_at) / RFU RCAN1 (11760418_a_at) / Fold change /veh RCAN1 (11760418_a_at) / RFU FAM167A (11723789_a_at) / Fold change /veh FAM167A (11723789_a_at) / RFU FAM26E (11764081_at) / Fold change /veh FAM26E (11764081_at) / RFU ISYNA1 (11749810_s_at) / Fold change /veh ISYNA1 (11749810_s_at) / RFU ACY1 (11761880_at) / Fold change /veh ACY1 (11761880_at) / RFU 11764098_at / Fold change /veh 11764098_at / RFU SAMD14 (11745864_x_at) / Fold change /veh SAMD14 (11745864_x_at) / RFU NPB (11741838_a_at) / Fold change /veh NPB (11741838_a_at) / RFU TMPRSS6 (11731388_a_at) / Fold change /veh TMPRSS6 (11731388_a_at) / RFU KRTAP10-2 (11738614_at) / Fold change /veh KRTAP10-2 (11738614_at) / RFU ARHGAP8 /// PRR5-ARHGAP8 (11727945_x_at) / Fold change /veh ARHGAP8 /// PRR5-ARHGAP8 (11727945_x_at) / RFU KRTAP5-7 /// NADSYN1 (11734609_at) / Fold change /veh KRTAP5-7 /// NADSYN1 (11734609_at) / RFU RASL12 (11751679_a_at) / Fold change /veh RASL12 (11751679_a_at) / RFU CDKN2B (11736163_a_at) / Fold change /veh CDKN2B (11736163_a_at) / RFU PRF1 (11729649_at) / Fold change /veh PRF1 (11729649_at) / RFU, ZNF638 /// ZNF638-IT1 / Fold change vs veh, ZNF638 /// ZNF638-IT1 / RFU, PANK3 / Fold change vs veh, PANK3 / RFU, SH3YL1 / Fold change vs veh, SH3YL1 / RFU, ZEB2 / Fold change vs veh, ZEB2 / RFU, NRIP1 / Fold change vs veh, NRIP1 / RFU, PTTG1IP / Fold change vs veh, PTTG1IP / RFU, CAPN2 / Fold change vs veh, CAPN2 / RFU, MED14 / Fold change vs veh, MED14 / RFU, SNORA58 / Fold change vs veh, SNORA58 / RFU, C1orf63 / Fold change vs veh, C1orf63 / RFU, LRRFIP1 / Fold change vs veh, LRRFIP1 / RFU, NDUFAF7 / Fold change vs veh, NDUFAF7 / RFU, SLC12A2 / Fold change vs veh, SLC12A2 / RFU, IBTK / Fold change vs veh, IBTK / RFU, ESF1 / Fold change vs veh, ESF1 / Fold change vs veh, TMEM50B / RFU, TAOK1 / Fold change vs veh, TAOK1 / RFU, ACBD3 / Fold change vs veh, ACBD3 / RFU, TMA16 / Fold change vs veh, TMA16 / RFU, RWDD3 / Fold change vs veh, RWDD3 / RFU, BCAT1 / Fold change vs veh, BCAT1 / RFU, EDEM3 / Fold change vs veh, EDEM3 / RFU, TMEM33 / Fold change vs veh, TMEM33 / RFU, WDR75 / Fold change vs veh, WDR75 / RFU, AHCTF1 / Fold change vs veh, AHCTF1 / RFU, TFRC / Fold change vs veh, TFRC / RFU, ZDHHC17 / Fold change vs veh, ZDHHC17 / RFU, NOM1 / Fold change vs veh, NOM1 / RFU, ARL8B / Fold change vs veh, ARL8B / RFU, ZBTB11 / Fold change vs veh, ZBTB11 / RFU, TAMM41 / Fold change vs veh, TAMM41 / RFU, KIAA1704 /// LOC100996395 / Fold change vs veh, KIAA1704 /// LOC100996395 / RFU, ING1 / Fold change vs veh, ING1 / RFU, TRMT61B / Fold change vs veh, TRMT61B / RFU, FUBP3 / Fold change vs veh, FUBP3 / RFU, TP53 / Fold change vs veh, TP53 / RFU, TNKS2 / Fold change vs veh, TNKS2 / RFU, ZFP14 / Fold change vs veh, ZFP14 / RFU, ACTR2 / Fold change vs veh, ACTR2 / RFU, PPP3R1 / Fold change vs veh, PPP3R1 / RFU, PIK3R1 / Fold change vs veh, PIK3R1 / RFU, HNRNPA1 / Fold change vs veh, HNRNPA1 / RFU, RNF170 / Fold change vs veh, RNF170 / RFU, ZNF28 / Fold change vs veh, ZNF28 / RFU, RNGTT / Fold change vs veh, RNGTT / RFU, OGT / Fold change vs veh, OGT / RFU, BRD1 / Fold change vs veh, BRD1 / RFU, MARS / Fold change vs veh, MARS / RFU, ZNF655 / Fold change vs veh, ZNF655 / RFU, FAHD1 / Fold change vs veh, FAHD1 / RFU, BDP1 / Fold change vs veh, BDP1 / RFU, LRRCC1 / Fold change vs veh, LRRCC1 / RFU, ARID1A / Fold change vs veh, ARID1A / RFU, ZNF146 / Fold change vs veh, ZNF146 / RFU, ZNF330 / Fold change vs veh, ZNF330 / RFU, GPN3 / Fold change vs veh, GPN3 / RFU, C9orf123 / Fold change vs veh, C9orf123 / RFU, N4BP2L2 / Fold change vs veh, N4BP2L2 / RFU, ARFIP1 / Fold change vs veh, ARFIP1 / RFU, FAM179B / Fold change vs veh, FAM179B / RFU, BCL10 / Fold change vs veh, BCL10 / RFU, UHRF1BP1L / Fold change vs veh, UHRF1BP1L / RFU, BET1 / Fold change vs veh, BET1 / RFU, CNOT2 / Fold change vs veh, CNOT2 / RFU, ZNF268 / Fold change vs veh, ZNF268 / Fold change vs veh, ZNF507 / RFU, DGCR2 / Fold change vs veh, DGCR2 / RFU, WDSUB1 / Fold change vs veh, WDSUB1 / Fold change vs veh, HSP90B1 /// MIR3652 / RFU, ADSS / Fold change vs veh, ADSS / RFU, GK / Fold change vs veh, GK / RFU, ZNF148 / Fold change vs veh, ZNF148 / RFU, TAF9 / Fold change vs veh, TAF9 / RFU, SLC1A5 / Fold change vs veh, SLC1A5 / RFU, SLMO2 / Fold change vs veh, SLMO2 / RFU, ABCC4 / Fold change vs veh, ABCC4 / RFU, LOC101060439 /// RAP1B / Fold change vs veh, LOC101060439 /// RAP1B / RFU, RFX7 / Fold change vs veh, RFX7 / RFU, GTPBP10 / Fold change vs veh, GTPBP10 / RFU, CNEP1R1 / Fold change vs veh, CNEP1R1 / RFU, BIVM-ERCC5 /// ERCC5 / Fold change vs veh, BIVM-ERCC5 /// ERCC5 / RFU, ILF3 / Fold change vs veh, ILF3 / RFU 11762660_at / Fold change /veh 11762660_at / RFU VCAN (11757783_s_at) / Fold change /veh VCAN (11757783_s_at) / RFU DDX43 (11728927_at) / Fold change /veh DDX43 (11728927_at) / RFU KRT8 (11758188_x_at) / Fold change /veh KRT8 (11758188_x_at) / RFU NKD1 (11759106_at) / Fold change /veh NKD1 (11759106_at) / RFU SRD5A1 (11742802_a_at) / Fold change /veh SRD5A1 (11742802_a_at) / RFU TPSAB1 /// TPSB2 (11721975_s_at) / Fold change /veh TPSAB1 /// TPSB2 (11721975_s_at) / RFU GSTM3 (11746129_a_at) / Fold change /veh GSTM3 (11746129_a_at) / RFU IL23R (11737362_x_at) / Fold change /veh IL23R (11737362_x_at) / RFU TMEM51 (11727254_a_at) / Fold change /veh TMEM51 (11727254_a_at) / RFU PIWIL2 (11732686_x_at) / Fold change /veh PIWIL2 (11732686_x_at) / RFU ORM1 (11744905_x_at) / Fold change /veh ORM1 (11744905_x_at) / RFU CCDC152 (11743942_at) / Fold change /veh CCDC152 (11743942_at) / RFU ECM1 (11717891_a_at) / Fold change /veh ECM1 (11717891_a_at) / RFU IL23R (11748794_a_at) / Fold change /veh IL23R (11748794_a_at) / RFU TNFAIP8L3 (11732012_x_at) / Fold change /veh TNFAIP8L3 (11732012_x_at) / RFU MBOAT4 (11741988_at) / Fold change /veh MBOAT4 (11741988_at) / RFU 11764193_at / Fold change /veh 11764193_at / RFU TMEM53 (11763286_at) / Fold change /veh TMEM53 (11763286_at) / RFU MAGEB2 (11727129_at) / Fold change /veh MAGEB2 (11727129_at) / RFU TMEM200A (11744735_a_at) / Fold change /veh TMEM200A (11744735_a_at) / RFU CCDC152 (11751479_a_at) / Fold change /veh CCDC152 (11751479_a_at) / RFU FAM211A (11726209_a_at) / Fold change /veh FAM211A (11726209_a_at) / RFU RGS16 (11746705_a_at) / Fold change /veh RGS16 (11746705_a_at) / RFU VCAN (11755009_s_at) / Fold change /veh VCAN (11755009_s_at) / RFU RHOB (11743442_s_at) / Fold change /veh RHOB (11743442_s_at) / RFU RGS16 (11720943_a_at) / Fold change /veh RGS16 (11720943_a_at) / RFU RGS16 (11720944_at) / Fold change /veh RGS16 (11720944_at) / RFU, VPS4B / Fold change vs veh, VPS4B / RFU, CREB1 / Fold change vs veh, CREB1 / RFU, DNAJC13 / Fold change vs veh, DNAJC13 / RFU, GNAQ / Fold change vs veh, GNAQ / RFU, CDK5R1 / Fold change vs veh, CDK5R1 / RFU, ZRANB3 / Fold change vs veh, ZRANB3 / RFU, CUL4A / Fold change vs veh, CUL4A / RFU, CCNY / Fold change vs veh, CCNY / RFU, UFL1 / Fold change vs veh, UFL1 / RFU, COG3 / Fold change vs veh, COG3 / RFU, DIAPH2 / Fold change vs veh, DIAPH2 / RFU, SKA2 / Fold change vs veh, SKA2 / RFU, AFF3 / Fold change vs veh, AFF3 / RFU, LMF1 / Fold change vs veh, LMF1 / RFU, IPO11 / Fold change vs veh, IPO11 / RFU, DFFB / Fold change vs veh, DFFB / RFU, FOXP1 / Fold change vs veh, FOXP1 / RFU, CARD8 / Fold change vs veh, CARD8 / RFU, STRN3 / Fold change vs veh, STRN3 / RFU, ADK / Fold change vs veh, ADK / RFU, RASSF2 / Fold change vs veh, RASSF2 / RFU, WIPF1 / Fold change vs veh, WIPF1 / RFU, LARP1B / Fold change vs veh, LARP1B / RFU, RASA1 / Fold change vs veh, RASA1 / RFU, RB1 / Fold change vs veh, RB1 / RFU, PPFIA1 / Fold change vs veh, PPFIA1 / RFU, MAT2A / Fold change vs veh, MAT2A / RFU, CCT5 / Fold change vs veh, CCT5 / RFU, WDR92 / Fold change vs veh, WDR92 / RFU, CUX1 / Fold change vs veh, CUX1 / RFU, TTC7A / Fold change vs veh, TTC7A / RFU, TMEM135 / Fold change vs veh, TMEM135 / RFU, DEPTOR / Fold change vs veh, DEPTOR / RFU, CPM / Fold change vs veh, CPM / RFU, DNAJB6 / Fold change vs veh, DNAJB6 / RFU, CACNA2D3 / Fold change vs veh, CACNA2D3 / RFU, DTX4 / Fold change vs veh, DTX4 / RFU, TFCP2 / Fold change vs veh, TFCP2 / RFU, GMCL1 /// GMCL1P1 / Fold change vs veh, GMCL1 /// GMCL1P1 / RFU, AEBP2 / Fold change vs veh, AEBP2 / RFU, SNHG1 /// SNORD22 /// SNORD25 /// SNORD26 /// SNORD27 /// SNORD28 /// SNORD29 /// SNORD31 / Fold change vs veh, SNHG1 /// SNORD22 /// SNORD25 /// SNORD26 /// SNORD27 /// SNORD28 /// SNORD29 /// SNORD31 / Fold change (Aza/veh), C12orf56 (ProbeSet 11735607_a_at) / Fold change (ACY-1035/veh), C12orf56 (ProbeSet 11735607_a_at) / Fold change (Aza/veh), FGFR1OP (ProbeSet 11751329_s_at) / Fold change (ACY-1035/veh), FGFR1OP (ProbeSet 11751329_s_at) / Fold change (Aza/veh), VPS36 (ProbeSet 11739960_a_at) / Fold change (ACY-1035/veh), VPS36 (ProbeSet 11739960_a_at) / RFU SYPL1 (11715823_x_at) / Fold change /veh SYPL1 (11715823_x_at) / RFU IGFBP7 (11715501_s_at) / Fold change /veh IGFBP7 (11715501_s_at) / RFU REEP3 (11722064_at) / Fold change /veh REEP3 (11722064_at) / RFU IGLL1 (11728026_x_at) / Fold change /veh IGLL1 (11728026_x_at): dose or concentration left out as unconfirmed
Conditions: ProbeSet 11725217_a_at; LIST B

**Q.** How did the “Fold change vs veh, WDSUB1” value turn out when `Nc1ncn([C@@H]2O[C@H](CO)[C@@H](O)[C@H]2O)c(=O)n1` [azacitidine] was run?
**A.** 0.86
